Data published in US20080039376A1, “Use of Cyclic Anabaenopeptin-type Peptides for the Treatment of a Condition Wherein Inhibition of Carboxypeptidase U is Beneficial, Novel Anabaenopeptin Derivatives and Intermediates Thereof” (A[…], priority 2003, published 2008).
*1 amine or outer side, *2 acyl side, *3 side chain or, on linkers, in order; H or OH if unused. Where a SMILES comes first, the peptide text is derived from it. Bridges are numbered along the chain shown (N, C = ends). [ ]: non-standard residue; d: D form. ξ: configuration not given here. X2 = CN([C@@H](Cc1c[nH]c2cc(Cl)c(O)cc12)C(=O)[*:2])[*:1]; X1 = O=C([C@H](Cc1c[nH]c2cc(Cl)c(O)cc12)N[*:1])[*:2]; Ile(3ξ) = CCC(C)[C@H](N)C(=O)O; NMeL = CN[C@@H](CC(C)C)C(=O)O; CO = O=C([*:1])[*:2]

Biological target: T1, carboxypeptidase U (Homo sapiens, UniProt Q96IY4)
T1 sequence (Q96IY4 115-423): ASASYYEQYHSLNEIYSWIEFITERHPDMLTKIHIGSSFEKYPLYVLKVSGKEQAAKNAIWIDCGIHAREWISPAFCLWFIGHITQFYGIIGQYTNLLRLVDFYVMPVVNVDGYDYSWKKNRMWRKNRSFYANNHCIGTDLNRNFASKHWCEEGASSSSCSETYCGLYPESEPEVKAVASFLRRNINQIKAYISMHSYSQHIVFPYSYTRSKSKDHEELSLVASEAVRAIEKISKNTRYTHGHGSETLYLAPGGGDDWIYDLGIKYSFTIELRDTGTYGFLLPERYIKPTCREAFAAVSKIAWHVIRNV
Test: carboxypeptidase U inhibition assay (Hendriks et al., Clin. Chem. 1985), substrate concentration 4 mM
Format: biochemical
Settings: substrate concentration of 4 mM
Protocol: The inhibiting effect of the compounds of the present invention was estimated using the assay described in: Dirk Hendriks, Simon Scharpé and Marc van Sande, Clinical Chemistry, 31, 1936-1939 (1985); and Wei Wang, Dirk F. Hendriks, Simon S. Scharpé, The Journal of Biological Chemistry, 269, 15937-15944 (1994), using a substrate concentration of 4 mM.
The activities of certain Examples in the assay described in: Dirk Hendriks, Simon Sharpé and Marc van Sande, Clinical Chemistry, 31, 1936-1939 (1985), using a substrate concentration of 4 mM, are presented in Table I below.

Row | SMILES | IC50
1 | CCC(C)[C@H](NC(=O)N[C@@H]1CCCCNC(=O)[C@H](Cc2ccccc2)NC(=O)[C@H](Cc2c[nH]c3cc(Cl)c(O)cc23)N(C)C(=O)[C@H](CC(C)C)NC(=O)[C@H](C(C)CC)NC1=O)C(=O)O (some centres unmarked) [Compound 8] ({Ile(3ξ)-CO}-[dK][Ile(3ξ)]L[X2]F; lactam 1-C) | 2.5 µM
2 | CC(C)C[C@@H]1NC(=O)[C@H](C)NC(=O)[C@H](NC(=O)N[C@@H](CCCNC(=N)N)C(=O)O)CCCCNC(=O)[C@H](Cc2c[nH]c3cc(Cl)c(O)cc23)NC(=O)[C@H](CC(C)C)N(C)C1=O [Compound 2] ({Arg-CO}-[dK]AL[NMeL][X1]; lactam 1-C) | 0.1 µM
